Laboratory results published in PMC9504842, “Comprehensive Metabolic Profiling of Euphorbiasteroid in Rats by Integrating UPLC-Q/TOF-MS and NMR as Well as Microbial Biotransformation” (Metabolites, 2022).
Like-named read-outs stand apart in the source and are kept apart here.

Assays:
[1] = tested on: SH-SY5Y neuroblastoma cells; assay: CCK-8 cell cytotoxicity assay, SH-SY5Y; assay type: cell-based; details: Homo sapiens, read-out: IC50 (μM) SH-SY5Y
Description: (§1) Cell cytotoxicity was determined by the CCK-8 assay. Four strains of human cells (SH-SY5Y) were seeded in 96-well plates at a density of 3 × 10^3 cells/well under 37 °C and 5% CO2 for 12 h and subsequently treated with the test sample solution (euphorbiasteroid and its metabolites, 10 μL) for 72 h. After treatment, each well with 10 μL CCK-8 reagent was incubated for 1–2 h in the incubator. Afterwards, the optical OD-value was measured at 450 nm through a microplate reader. Three multiple wells were set as parallel experimental groups.
(§2) Euphorbiasteroid and its metabolites were tested for their cytotoxicity on human cell lines SH-SY5Y, LO2, AC-16, and HK-2 by the CCK-8 assay. […] Therefore, considering the high content of euphorbiasteroid in Euphorbiae semen, it was speculated that the metabolites from hydroxylation and hydrolysis might be the potential toxic constituents of Euphorbiae semen.

LO2 cells = assay: CCK-8 cell cytotoxicity assay, LO2; assay type: cell-based; details: Homo sapiens, read-out: IC50 (μM) LO2
Description: as §1, §2

AC-16 cells = assay: CCK-8 cell cytotoxicity assay, AC-16; assay type: cell-based; details: Homo sapiens, read-out: IC50 (μM) AC-16
Description: as §1, §2

HK-2 cells = assay: CCK-8 cell cytotoxicity assay, HK-2; assay type: cell-based; details: Homo sapiens, read-out: IC50 (μM) HK-2
Description: as §1, §2

[2] = Metabolite detection in rats (plasma, urine, feces) after oral euphorbiasteroid by UPLC-Q/TOF-MS; assay type: in vivo, Sprague-Dawley rats; details: single oral dose 100 mg/kg euphorbiasteroid
Description: For metabolite separation and detection, chromatographic analyses were performed using a Waters Acquity UPLC I-class system (Waters, Milford, MA, USA), equipped with an auto-sampler, a binary solvent delivery system, an online degasser, and a photodiode array detector. An ACQUITY UPLC® HSS T3 column (2.1 × 150 mm, 1.8 μm, Waters) protected with a HSS T3 VanGuard ™ Pre-Column 3/Pk (2.1 × 5.0 mm, 1.8 μm, Waters) was used. The optimized parameters were set as follows: the mobile phase consisted of eluent A (0.1% formic acid in water, v/v) and eluent B (acetonitrile). The flow rate was 0.3 mL/min. The column and auto-sampler temperatures were maintained at 40 °C and 4 °C, respectively. The gradient elution program was optimized as follows: 0–9 min, 30–70% B; 9–13 min, 70–90% B; 13–17 min, 90–100% B; 17–20 min, 100–100% B.
The mass spectrometry detection was performed on the SYNAPT G2-Si HDMS system, equipped with an electrospray ionization (ESI) source (Waters Corp., Manchester, UK). A positive ion mode was conducted in this analysis. Mass spectrometry conditions were finally set as follows: capillary voltage of 3.0 kV, cone voltage of 40 V, source temperature of 120 °C, and de-solvation temperature of 400 °C. Nitrogen was used as the desolvation and cone gas with a flow rate of 800 and 50 L/h, respectively, and the full-scan mass range was set as m/z 50–1500 Da. In the auto mass spectrometry mode, the collision-induced dissociation energies were set at 0 eV for the precursor ion at the low-energy mode, and the collision-induced dissociation energies were set from 2 to 10 eV for the high-energy mode. Real-time data were calibrated using an external reference (LockSpray™) at a concentration of 0.2 ng/mL with an infusion flow rate of 5 μL/min, generating a reference ion for the positive ion mode (m/z 556.2771) during the UPLC-MS analysis. Data were acquired and processed using MassLynx ™ NT 4.1 software (Waters, Milford, MA, USA).
Male Sprague-Dawley rats (200–220 g) were commercially supplied by Shanghai Sippr-BK Laboratory Animal Co., Ltd. (Shanghai, China) and were housed in a humidity- and temperature-controlled room (50 ± 10% and 22–24 °C) with a 12-h light/dark cycle. The experimental rats were allowed to access food and water ad libitum and acclimatized to the conditions mentioned above for a week, then fasted overnight but with free access to water before the experiments. Euphorbiasteroid was dissolved in soybean oil solution (containing 0.5% ethanol) to form a concentration of 10 mg/mL. A single dose of 100 mg/kg euphorbiasteroid was orally administered to rats and the same concentration of soybean oil solution (containing 0.5% ethanol) was administered as a blank control. All animal procedures were performed in accordance with the Guidelines for Care and Use of Laboratory Animals of Naval Medical University and approved by the Animal Ethics Committee of Naval Medical University.
Blood samples (0.5 mL) were collected from six rats through the orbital sinus before administration (blank sample) and 0.25, 0.5, 1, 2, 4, 6, and 12 h after administration. Plasma samples were prepared by centrifugation at 4000 rpm for 10 min. For urine and feces sampling, 12 rats were divided into an administration group and a blank group, and were placed separately in stainless steel metabolic cages. Urine and feces samples were collected in containers surrounded by ice over 0–6, 6–12, and 12–24 h after drug administration. The mixed urine samples were centrifuged at 4000 rpm for 10 min at 4 °C to obtain the supernatants, and fecal samples were left in a cool and dry place until dry. All the biological samples were frozen at −80 °C before analysis.
An aliquot of 200 µL of plasma and urine samples was put in a 1.5 mL tube, respectively. 800 µL of acetonitrile was added and vortexed for 5 min to extract metabolites. Feces samples (1.0 g) were crushed and then ultrasonically extracted with acetonitrile (10 mL) for 30 min. […]

[3] = In vitro incubation of euphorbiasteroid with rat liver microsomes, metabolite detection; assay type: in vitro ADME; details: 37 °C, 1 h, NADPH regenerating system
Description: The microsomal incubation approach was based on previous metabolism studies published by Wintermeyer et al. and Franziska et al.. A 200 μL incubation system containing 10 μL of solution A, 2 μL of solution B, 5 μL of rat liver microsomes (20 mg/mL) and 182 μL 0.1 M PBS buffer (pH = 7.4) was constructed. The above solution was heated in a 37 °C water bath, then 1 μL of euphorbiasteroid (dissolved in DMSO solution, 10 mM) was used to start the reaction, and the mixture was then incubated at 37 °C for 1 h. The reactions were terminated by the addition of 200 μL of ice-cold acetonitrile. The mixture was then centrifuged at 13,000 rpm for 10 min, and a 2-μL aliquot of the supernatant was directly injected into the UPLC-Q-TOF-MS system.
(§3) First, the metabolites of euphorbiasteroid in rats (plasma, urine, and feces), RLMs, and C. elegans culture medium were predicted by setting the prototype components and potential biological metabolic reactions in UNIFI 4.1 software. Then, the predicted metabolites in each sample were further compared according to the characteristic mass spectrum behaviors (including parent ions, internal cleavage in the ion source, and characteristic fragment ions of each metabolite) and retention times.

[4] = tested on: Cunninghamella elegans bio-110930; assay: Microbial transformation of euphorbiasteroid, metabolite detection; details: C. elegans bio-110930 culture with euphorbiasteroid
Description: The biotransformation process was conducted at two scales: preliminary screening and preparative. Preliminary screening scale biotransformation of euphorbiasteroid was carried out in 250 mL Erlenmeyer flasks containing 100 mL of liquid medium. The flasks were placed on a rotary shaker (160 rpm, 28 °C). A standard two-stage fermentation protocol was employed in all experiments. After 2 days of pre-culture, the substrates of 5 mg (dissolved in 0.5 mL of acetone) were added into each flask. Taking 1 mL samples on days 0, 2, 4, 7, 10, and 14, samples were centrifuged and the degree of transformation was compared to controls on TLC and HPLC, and a 2-μL aliquot of the supernatant was directly injected into the UPLC-Q-TOF-MS system. Culture controls consisted of sterile medium, in which microorganisms were grown under identical conditions without substrate. Substrate controls were composed of sterile medium and the same amount of substrate incubated under the same conditions without microorganisms.
as §3

[5] = tested on: human cell lines SH-SY5Y, LO2, AC-16, and HK-2; assay: CCK-8 cytotoxicity, summary over four human cell lines; assay type: cell-based; details: span over SH-SY5Y, LO2, AC-16, HK-2 (and over the named metabolites), read-out: IC50 values against four human cell lines
Description: as §1, §2

Row | SMILES | IC50 ([1]; 72 h) [µM] | IC50 (LO2 cells; L02, 72 h) [µM] | IC50 (AC-16 cells; 72 h) [µM] | IC50 (HK-2 cells; HK-2, 72 h) [µM] | Distribution Rat Faeces (metabolite detected) [2] | Distribution Rat Plasma (metabolite detected) [2] | Distribution Rat Urine (metabolite detected) [2] | Distribution RLMs (metabolite detected) [3] | Distribution Fungi (metabolite detected) [4] | IC50 ([1]; CCK-8, 72 h treatment) [µM] | IC50 (LO2 cells; L02, CCK-8, 72 h treatment) [µM] | IC50 (AC-16 cells; CCK-8, 72 h treatment) [µM] | IC50 (HK-2 cells; HK-2, CCK-8, 72 h treatment) [µM] | IC50 [5] [µM]
1 | CC(=O)OC1C2C(OC(=O)Cc3ccccc3)C(C)CC2(OC(C)=O)C(=O)C(CO)=CC2C(CCC13CO3)C2(C)C (centres unmarked) [Compound M3, 20-hydroxyl euphorbiasteroid] | 39.6 ± 0.43 | 37.4 ± 0.41 | 17.9 ± 0.19 | 22.7 ± 0.25 | √ | √ | √ | √ | √ | – | – | – | – | –
2 | CC1=CC2C(CCC3(CO3)C(O)C3C(O)C(C)CC3(O)C1=O)C2(C)C (centres unmarked) [Compound M24, epoxylathyrol] | – | – | – | – | √ | √ | √ | √ | – | 40.7 ± 0.44 | 38.9 ± 0.42 | 21.7 ± 0.24 | 26.5 ± 0.29 | 3.6 to 40.7
3 | CC(=O)OC1C2C(OC(=O)Cc3ccccc3)C(C)CC2(O)C(=O)C(C)=CC2C(CCC13CO3)C2(C)C (centres unmarked) [Compound M25, 15-deacetyl euphorbiasteroid] | 33.3 ± 0.36 | 30.1 ± 0.33 | 3.6 ± 0.04 | 16.1 ± 0.18 | √ | √ | √ | √ | – | – | – | – | – | –
